Assay results as given in patent US11981661B2, “Heterocyclic compounds” (Hoffmann-La Roche Inc., priority 2020, dated 2024).

molecular target: T1, MAGL (Homo sapiens, UniProt Q99685); assay: 2-AG assay (MAGL inhibitory activity, hydrolysis of 2-arachidonoylglycerol followed by mass spectrometry); assay type: biochemical; details: 50 pM MAGL, 8 μM 2-arachidonoylglycerol, 15 min preincubation, 30 min incubation at RT, concentration range 12.5 μM to 0.8 pM
T1 sequence (Q99685 1-303): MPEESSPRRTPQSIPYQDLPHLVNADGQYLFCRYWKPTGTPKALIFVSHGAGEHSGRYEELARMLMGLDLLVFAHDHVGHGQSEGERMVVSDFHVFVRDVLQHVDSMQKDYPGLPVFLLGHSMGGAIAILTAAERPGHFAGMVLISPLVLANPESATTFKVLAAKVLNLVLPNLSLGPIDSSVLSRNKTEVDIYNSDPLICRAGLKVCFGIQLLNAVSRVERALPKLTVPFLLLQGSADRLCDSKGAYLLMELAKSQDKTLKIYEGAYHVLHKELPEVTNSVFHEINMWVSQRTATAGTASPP
Outline: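 Activity derived from the arachidonic acid/d8-arachidonic acid MS intensity ratio after acetonitrile quench. Reaction: 8 μM 2-AG substrate with 50 pM MAGL, 30 min at RT, following 15 min RT compound preincubation; buffer 50 mM TRIS, 1 mM EDTA, 0.01% Tween; final compound range 12.5 μM to 0.8 pM.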

Compound	IC50 [nM]
O=C1N[C@@H](COC(=O)N2CC3(CC(Cc4ccc(F)cc4F)C3)C2)CO1 [Example 59, [(4R)-2-Oxooxazolidin-4-yl]methyl 6-[(2,4-difluorophenyl)methyl]-2-azaspiro[3.3]heptane-2-carboxylate]	2
O=C1N[C@H](COC(=O)N2CC(c3ccc(Oc4ccccc4Cl)nc3)C2)CO1 [Example 60, [(4S)-2-Oxooxazolidin-4-yl]methyl 3-[6-(2-chlorophenoxy)-3-pyridyl]azetidine-1-carboxylate]	33
O=C1N[C@H](COC(=O)N2CC(C#Cc3ccccc3C(F)F)C2)CO1 [Example 61, [(4S)-2-Oxooxazolidin-4-yl]methyl 3-[2-[2-(difluoromethyl)phenyl]ethynyl] azetidine-1-carboxylate]	13
O=C1N[C@H](COC(=O)N2CC(c3ccc(N4CCC(C(F)(F)F)C4)nc3)C2)CO1 (stereo partly drawn) [Example 62, [(4S)-2-Oxooxazolidin-4-yl]methyl 3-[6-[3-(trifluoromethyl)pyrrolidin-1-yl]-3-pyridyl]azetidine-1-carboxylate]	26
O=C(OCCc1cnn[nH]1)N1CC(OCc2ccc(C(F)(F)F)cc2F)C1 [Example 63, 2-(1H-Triazol-5-yl)ethyl 3-[[2-fluoro-4-(trifluoro-methyl)phenyl]methoxy]azetidine-1-carboxylate]	19
O=C(NCCc1cnn[nH]1)N1CC(OCc2ccc(C(F)(F)F)cc2F)C1 [Example 64, 3-[[2-Fluoro-4-(trifluoromethyl)phenyl]methoxy]-N-[2-(1H-triazol-5-yl)ethyl]azetidine-1-carboxamide]	93
CN(CCc1cnn[nH]1)C(=O)N1CC(c2ccc(C3(C(F)(F)F)CC3)cc2)C1 [Example 65, N-Methyl-N-[2-(1H-triazol-5-yl)ethyl]-3-[4-[1-(trifluoromethyl)cyclopropyl]phenyl] azetidine-1-carboxamide]	2
CN(CCc1cnn[nH]1)C(=O)N1CC(OCc2ccc(C(F)(F)F)cc2F)C1 [Example 66, 3-[[2-Fluoro-4-(trifluoromethyl)phenyl]methoxy]-N-methyl-N-[2-(1H-triazol-5-yl)ethyl]azetidine-1-carboxamide]	13
CN(CCc1cnn[nH]1)C(=O)N1CC(c2ccc(-c3ccc(S(C)(=O)=O)cc3Cl)cc2)C1 [Example 67, 3-[4-(2-Chloro-4-methylsulfonyl-phenyl)phenyl]-N-methyl-N-[2-(1H-triazol-5-yl)ethyl]azetidine-1-carboxamide]	27
CC(CCc1cnn[nH]1)C(=O)N1CC(c2ccc(C3(C(F)(F)F)CC3)cc2)C1 (stereo not shown) [Example 68, 2-Methyl-4-(1H-triazol-5-yl)-1-[3-[4-[1-(trifluoromethyl)cyclopropyl]phenyl]azetidin-1-yl]butan-1-one]	59
O=C(CC(O)Cc1cnn[nH]1)N1CC(c2ccc(C3(C(F)(F)F)CC3)cc2)C1 (stereo not shown) [Example 69, 3-Hydroxy-4-(1H-triazol-5-yl)-1-[3-[4-[1-(trifluoromethyl)cyclopropyl]phenyl]azetidin-1-yl]butan-1-one]	122
O=C(C(F)CCc1cnn[nH]1)N1CC(c2ccc(C3(C(F)(F)F)CC3)cc2)C1 (stereo not shown) [Example 70, 2-Fluoro-4-(1H-triazol-5-yl)-1-[3-[4-[1-(trifluoromethyl)cyclopropyl]phenyl]azetidin-1-yl]butan-1-one]	62
CN(c1ccccc1)c1ccc(C2CN(C(=O)CC[C@@H]3COC(=O)N3)C2)cc1 [Example 71, (4R)-4-[3-[3-[4-(N-Methylanilino)phenyl]azetidin-1-yl]-3-oxo-propyl]oxazolidin-2-one]	1
CS(=O)(=O)c1ccc(-c2ccc(C3CN(C(=O)CC[C@@H]4COC(=O)N4)C3)cc2)c(Cl)c1 [Example 73, (4R)-4-[3-[3-[4-(2-Chloro-4-methyl-sulfonyl-phenyl)phenyl]azetidin-1-yl]-3-oxo-propyl]oxazolidin-2-one]	1
O=C1N[C@H](CCC(=O)N2CC(c3ccc(S(=O)(=O)c4ccccc4)cc3)C2)CO1 [Example 74, (4R)-4-[3-[3-[4-(Benzenesulfonyl)phenyl]azetidin-1-yl]-3-oxo-propyl]oxazolidin-2-one]	5
O=C1N[C@H](CCC(=O)N2CC(c3ccc(S(=O)(=O)C4CCCCC4)cc3)C2)CO1 [Example 77, (4R)-4-[3-[3-(4-Cyclohexylsulfonyl-phenyl)azetidin-1-yl]-3-oxo-propyl] oxazolidin-2-one]	35
O=C1N[C@H](CCC(=O)N2CC(c3ccc(Oc4nccc(C5CC5)n4)cc3)C2)CO1 [Example 80, (4R)-4-[3-[3-[4-(4-Cyclopropyl-pyrimidin-2-yl)oxyphenyl]azetidin-1-yl]-3-oxo-propyl] oxazolidin-2-one]	27
CS(=O)(=O)c1cc(Cl)ccc1-c1ccc(C2CN(C(=O)CC[C@@H]3COC(=O)N3)C2)cc1 [Example 82, (4R)-4-[3-[3-[4-(4-Chloro-2-methyl-sulfonyl-phenyl)phenyl]azetidin-1-yl]-3-oxo-propyl]oxazolidin-2-one]	0.5
NC(=O)c1cc(Cl)ccc1Oc1ccc(C2CN(C(=O)CC[C@@H]3COC(=O)N3)C2)cn1 [Example 85, 5-Chloro-2-[[5-[1-[3-[(4R)-2-oxooxazolidin-4-yl]propanoyl]azetidin-3-yl]-2-pyridyl]oxy]benzamide]	123
O=C1CSC[C@H](CCC(=O)N2CC(OCc3ccc(C(F)(F)F)cc3F)C2)N1 [Example 88, (5S)-5-[3-[3-[[2-Fluoro-4-(trifluoromethyl)phenyl]methoxy]azetidin-1-yl]-3-oxo-propyl]thiomorpholin-3-one]	1300
O=C1N[C@H](CCC(=O)N2CC(c3ccc(N(CC4CC4)c4ccccc4)cc3)C2)CO1 [Example 89, (4R)-4-[3-[3-[4-[N-(Cyclopropylmethyl)anilino]phenyl]azetidin-1-yl]-3-oxo-propyl] oxazolidin-2-one]	0.02
O=C1N[C@H](CCC(=O)N2CC(c3ccc(N(c4ccccc4)c4ccccc4)cc3)C2)CO1 [Example 90, (4R)-4-[3-Oxo-3-[3-[4-(N-phenylanilino)phenyl]azetidin-1-yl]propyl] oxazolidin-2-one]	0.02
O=C1N[C@H](CCC(=O)N2CC(c3ccc(N(CC4CC4)c4ccccc4)nc3)C2)CO1 [Example 95, (4R)-4-[3-[3-[6-[N-(Cyclopropyl-methyl)anilino]-3-pyridyl]azetidin-1-yl]-3-oxo-propyl]oxazolidin-2-one]	0.35
COCCN(c1ccc(C2CN(C(=O)CC[C@@H]3COC(=O)N3)C2)cc1)c1cccnc1 [Example 96, (4R)-4-[3-[3-[4-[2-Methoxyethyl(3-pyridyl)amino]phenyl]azetidin-1-yl]-3-oxo-propyl]oxazolidin-2-one]	2

The remaining lines, values ahead:

IC50 [nM]	Compound
7	CC(C)(C)c1ccc(C2CN(C(=O)CC[C@@H]3COC(=O)N3)C2)nc1 [Example 72, (4R)-4-[3-[3-(5-tert-Butyl-2-pyridyl)azetidin-1-yl]-3-oxo-propyl]oxazolidin-2-one]
57	N#CCS(=O)(=O)c1ccc(C2CN(C(=O)CC[C@@H]3COC(=O)N3)C2)cc1 [Example 75, 2-[4-[1-[3-[(4R)-2-Oxooxazolidin-4-yl]propanoyl]azetidin-3-yl]phenyl]sulfonyl-acetonitrile]
81	O=C1N[C@H](CCC(=O)N2CC(c3ccc(S(=O)(=O)C(F)(F)F)cc3)C2)CO1 [Example 76, (4R)-4-[3-Oxo-3-[3-[4-(trifluoro-methylsulfonyl)phenyl]azetidin-1-yl]propyl]oxazolidin-2-one]
981	N#CC1(c2ccc(C3CN(C(=O)CC[C@@H]4COC(=O)N4)C3)cn2)CCC1 [Example 78, 1-[5-[1-[3-[(4R)-2-Oxooxazolidin-4-yl]propanoyl]azetidin-3-yl]-2-pyridyl]cyclobutane-carbonitrile]
33	Cc1ncccc1Oc1ccc(C2CN(C(=O)CC[C@@H]3COC(=O)N3)C2)cc1 [Example 79, (4R)-4-[3-[3-[4-[(2-Methyl-3-pyridyl)oxy]phenyl]azetidin-1-yl]-3-oxo-propyl]oxazolidin-2-one]
7	CC(C)(C)Cn1nncc1-c1ccc(C2CN(C(=O)CC[C@@H]3COC(=O)N3)C2)cc1 [Example 81, (4R)-4-[3-[3-[4-[3-(2,2-Dimethyl-propyl)triazol-4-yl]phenyl]azetidin-1-yl]-3-oxo-propyl]oxazolidin-2-one]
357	CC(C)(C)c1ccc(C2CN(C(=O)CC[C@@H]3COC(=O)N3)C2)cn1 [Example 91, (4R)-4-[3-[3-(6-tert-Butyl-3-pyridyl)azetidin-1-yl]-3-oxo-propyl]oxazolidin-2-one]
293	COc1ccc(N(C)c2ccc(C3CN(C(=O)CC[C@@H]4COC(=O)N4)C3)cn2)nc1 [Example 92, (4R)-4-[3-[3-[6-[(5-Methoxy-2-pyridyl)-methyl-amino]-3-pyridyl]azetidin-1-yl]-3-oxo-propyl]oxazolidin-2-one]
173	CN(c1ccccc1)c1ccc(C2CN(C(=O)CC[C@@H]3COC(=O)N3)C2)cn1 [Example 93, (4R)-4-[3-[3-[6-(N-Methyl-anilino)-3-pyridyl]azetidin-1-yl]-3-oxo-propyl]oxazolidin-2-one]
10	CC(C)c1ccc(N(C)c2ccc(C3CN(C(=O)CC[C@@H]4COC(=O)N4)C3)cn2)cc1 [Example 94, (4R)-4-[3-[3-[6-(4-Isopropyl-N-methyl-anilino)-3-pyridyl]azetidin-1-yl]-3-oxo-propyl]oxazolidin-2-one]
